This is an account of results in patent publication US7645903B2, “Use of urea variants as affinity ligands” (GE Healthcare Bio-Sciences AB, priority 2002, dated 2010).

Each structure is given as a SMILES string.

One experiment concerns human Fab of κ-type. As to the kind of experiment: STD-NMR binding test (saturation transfer difference NMR screening). Also noted: key to NMR signal, conc 1 / NMR signal, conc 2 / NMR signal, conc 3 / NMR signal, Conc 1 (directed library) / NMR signal, Conc 2 (directed library): 0 no; 1 weak; 2 strong signal. As to conditions: for NMR signal, conc 3: 20 nM protein; for NMR signal, conc 3 / NMR signal, conc 2 / NMR signal, conc 1: 0.5 mM ligand; for NMR signal, conc 2: 100 nM protein; for NMR signal, conc 1: 500 nM protein; for NMR signal at the first dilution of antibody concentration: conc 2, 100 nM; for binder designation from NMR screening: from signals at 500, 100 and 20 nM antibody. As to the method: (§1) All NMR experiments were performed at 298 K on a Bruker Avance 500 MHz spectrometer. The 1D saturation transfer difference method (STD-NMR) was used as screening assay (Mayer M. and Meyer B. 1999. Characterisation of Ligand Binding by Saturation Transfer Difference NMR Spectroscopy. Angew. Chem., Int. Ed. 38: 1784-1788). […] The two spectra are recorded in the same experiment in an interleaved fashion. […] It has been shown that the method is capable of detecting ligands with dissociation constants between 10^−3 and 10^−8 M (Mayer M. and Meyer B. 1999. Characterisation of Ligand Binding by Saturation Transfer Difference NMR Spectroscopy. Angew. Chem, Int. Ed. 38: 1784-1788). The strength of the STD-NMR signal depends upon several factors including protein size, offset and duration of the on-resonance irradiation, the dissociation rate constant and the excess of ligand. The STD-NMR method is advantageous in that the detection limits can be tuned for binding by varying the protein concentration while keeping the ligand concentration constant. Under such conditions, at higher protein concentrations the weak to medium binders are detected, whereas at lower protein concentrations only medium binders are detected. For instance, it has been shown before for another enzyme system that both μM and mM binders were detected at a protein concentration of 35 μM whereas only μM binders were detected at protein concentrations of 1 μM and 100 nM (Peng J. W., Lepre C. A., Fejzo J., Abdul-Manan N. and Moore J. M. 2001, Nuclear Magnetic Resonance-Based Approaches for Lead Generation in Drug Discovery, Methods in Enzymology. 338: 202-230). It should be noted that the signal intensity at one specific protein concentration should not be taken as a direct measure of the binding strength. […] On the other hand the signal of the μM binder became even stronger than before (Peng J. W., Lepre C. A., Fejzo J., Abdul-Manan N. and Moore J. M. 2001, Nuclear Magnetic Resonance-Based Approaches for Lead Generation in Drug Discovery, Methods in Enzymology. 338: 202-230).
(§2) Here, three different antibody concentrations were used, namely, 0.5 μM, 100 nM and 20 nM. The antibody used was a human Fab of κ-type. In all cases ligands were tested one-by-one. On-resonance irradiation was set at 0 ppm and off-resonance irradiation was set at 40 ppm. Irradiation time in each scan was 2 s and 16K data points were collected with 1024 scans in total. Compounds for testing were dissolved in DMSOd6 to a concentration of 50 mM and 5 μL of the concentrated ligand solution was added to 495 μL buffer solution. The samples thus consisted of 0.5 mM ligand, 20 mM phosphate buffer, 100 mM NaCl and […] in D2O at pD 7.5, uncorrected reading on pH-meter. Compounds were initially tested for binding with 0.5 μM antibody. Interesting ligands were further tested with protein concentrations of 100 or 20 nM. A one-dimensional ^1H-spectrum was acquired first as reference spectrum and subsequently a saturation transfer difference (STD) spectrum was acquired. Each analysis took 60 minutes on the spectrometer.

Experiment [1] can be described thus: STD-NMR control in the absence of target antibody. Also noted: key to NMR signal, ctrl: 0 no; 1 weak; 2 strong signal. Particulars: for NMR signal, ctrl: absence of target antibody. As for the experimental part: as §1, §2
These compounds were designated as weak binders. […] Of these, three compounds AB—0000860, AB—0000910 and AB—0001250 showing a clear signal (2 in table 1) were further analysed at a second dilution of antibody concentration (conc 3 in table 1).

Consider `CN(C)C(=O)N(C)c1ccc(Cl)c(Cl)c1` [AB_0001250, 1-(3,4-dichlorophenyl)-1,3,3-trimethylurea], for which, in the experiment on human Fab of κ-type, the “NMR signal, conc 3” value was found to be 1; the “NMR signal, conc 2” value is on record as 2; the “NMR signal, conc 1” value is recorded as 2; the “NMR signal at the first dilution of antibody concentration” value (shortened to “NMR signal at the first dilution”) is given as “clear signal”. Besides, in the experiment with human Fab of κ-type, the “binder designation from NMR screening” value is listed as “strong binders”. For the same molecule, the “NMR signal, ctrl” value in experiment [1] is reported as 0.
`COc1ccc(CC(C)=O)cc1Br` [AB_0000910, 3-bromo-4-methoxyphenylacetone]: in the experiment on human Fab of κ-type, the “NMR signal, conc 3” value came to 0; the “NMR signal, conc 2” value was 2; the “NMR signal, conc 1” value is given as 2; the “NMR signal at the first dilution” value was “clear signal”. Moreover, the “NMR signal at a second dilution of antibody concentration” value in the experiment on human Fab of κ-type (conc 3, 20 nM) was “did not show any signal”. In addition, the “NMR signal, ctrl” value in experiment [1] is 0.
For the molecule `N#CCc1ccc(C(=O)c2ccccc2F)s1` [AB_0001010, 2-[5-(2-fluorobenzoyl)-2-thienyl]acetonitrile], in the experiment with human Fab of κ-type, the “NMR signal, conc 3” value is listed as 2; the “NMR signal, conc 2” value was 2; the “NMR signal, conc 1” value was found to be 2; the “binder designation from NMR screening” value was “false positive”. In addition, the “NMR signal, ctrl” value in experiment [1] is reported as 1. Besides, the “NMR signal in the absence of target antibody” value in experiment [1] (no antibody) is recorded as “positive NMR signal”.
As for `OCC(Oc1ccccc1)c1ccccc1` (stereo not shown) [AB_0000810, 2-phenoxy-2-phenyl-1-ethanol], in the experiment with human Fab of κ-type, the “NMR signal, conc 2” value stood at 1 and the “NMR signal, conc 1” value is 2. Further, the “NMR signal, ctrl” value in experiment [1] is recorded as 0.
On to `c1ccc(-c2nnc3ccccc3n2)cc1` [AB_0000600, 3-phenyl-1,2,4-benzotriazine], for which, in the experiment with human Fab of κ-type, the “NMR signal, conc 2” value was determined as 1 and the “NMR signal, conc 1” value is 1. The “NMR signal, ctrl” value in experiment [1] was found to be 0.
Regarding `O=C1CN(c2ccccc2)C(=O)N1c1ccccc1` [AB_0000860, 1,3-diphenylimidazolidine-2,4-dione], in the experiment with human Fab of κ-type, the “NMR signal, conc 3” value came out at 1; the “NMR signal, conc 2” value was 2; the “NMR signal, conc 1” value is on record as 2; the “NMR signal at the first dilution” value is “clear signal”. In addition, the “binder designation from NMR screening” value in the experiment with human Fab of κ-type is “strong binders”. In addition, the “NMR signal, ctrl” value in experiment [1] was 0.
With `CC(C)=CC1=C(O)C(=O)c2ccccc2C1=O` [AB_0001040, 2-hydroxy-3-(2-methyl-1-propenyl)-1,4-naphthoquinone], in the experiment on human Fab of κ-type, the “NMR signal, conc 2” value was 1 and the “NMR signal, conc 1” value is 1. In addition, the “NMR signal, ctrl” value in experiment [1] turned out to be 0.
Consider `O=C(Nc1ccc(F)cc1)Oc1noc(-c2ccccc2)n1` [AB_0000740, 5-phenyl-1,2,4-oxadiazol-3-yl n-(4-fluorophenyl)carbamate], for which, in the experiment with human Fab of κ-type, the “NMR signal, conc 1” value is listed as 0.
Consider `O=C(Cc1ncon1)Nc1ccc(F)cc1F` [AB_0000690, n1-(2,4-difluorophenyl)-2-(1,2,4-oxadiazol-3-yl)acetamide], for which the “NMR signal, conc 1” value in the experiment on human Fab of κ-type is listed as 0.
For the molecule `COC(=O)CCCN(C)C(=O)N(C)c1ccc(OC)c(F)c1` [AB_0001252, 4-[3-(3-Fluoro-4-methoxy-phenyl)-1,3-dimethyl-ureido]-butyric acid methyl ester], in the experiment with human Fab of κ-type (100 nM antibody), the “NMR signal, Conc 2 (directed library)” value was 1. Also, the “NMR signal, Conc 1 (directed library)” value with human Fab of κ-type (500 nM antibody) is 1.
`COC(=O)C1OC1c1cc(Cl)ccc1OC` (stereo not shown) [AB_0001240, methyl 3-(5-chloro-2-methoxyphenyl)-2,3-epoxypropionate]: in the experiment with human Fab of κ-type, the “NMR signal, conc 2” value is on record as 1 and the “NMR signal, conc 1” value came to 1. Moreover, the “NMR signal, ctrl” value in experiment [1] is recorded as 0.
Consider `Clc1ccc(OCc2noc(CSc3ccccn3)n2)cc1` [AB_0001290, 3-[(4-chlorophenoxy)methyl]-5-[(2-pyridylthio)methyl]-1,2,4-oxadiazole], for which, in the experiment on human Fab of κ-type, the “NMR signal, conc 2” value is on record as 1 and the “NMR signal, conc 1” value is given as 2. Also, the “NMR signal, ctrl” value in experiment [1] stood at 0.
For the molecule `O=C(Cc1ncon1)Nc1ccc(F)c(F)c1F` [AB_0000630, n1-(2,3,4-trifluorophenyl)-2-(1,2,4-oxadiazol-3-yl)acetamide], in the experiment with human Fab of κ-type, the “NMR signal, conc 1” value is given as 0.
With `O=C(CC1OC(=O)c2ccccc21)c1ccccn1` (stereo not shown) [AB_0000790, 3-[2-oxo-2-(2-pyridyl)ethyl]-1,3-dihydroisobenzofuran-1-one], the “NMR signal, conc 1” value with human Fab of κ-type is 0.
As for `Fc1cc(F)cc(Cc2nc(-c3cccs3)no2)c1` [AB_0001020, 5-(3,5-difluorobenzyl)-3-(2-thienyl)-1,2,4-oxadiazole], in the experiment on human Fab of κ-type, the “NMR signal, conc 2” value is recorded as 0 and the “NMR signal, conc 1” value came out at 1.
In the case of `FC(F)(F)c1cccc(-n2ccnc2)c1` [AB_0001220, 1-(3-trifluoromethylphenyl)imidazole], in the experiment on human Fab of κ-type, the “NMR signal, conc 2” value amounted to 0 and the “NMR signal, conc 1” value was 2.
As for `Cc1cc(C)nc(SCC(=O)Nc2ccc(F)c(Cl)c2)n1` [AB_0000580, n1-(3-chloro-4-fluorophenyl)-2-[(4,6-dimethylpyrimidin-2-yl)thio]acetamide], in the experiment on human Fab of κ-type, the “NMR signal, conc 2” value was found to be 0 and the “NMR signal, conc 1” value is reported as 1.
As for `O=C1c2ccncc2C(=O)N1c1ccc(Cl)cc1` [AB_0000610, 2-(4-chlorophenyl)-2,3-dihydro-1h-pyrrolo[3,4-c]pyridine-1,3-dione], the “NMR signal, conc 1” value in the experiment with human Fab of κ-type was 0.
Still for that read-out and setting: with `O=C1C=C(Cl)C(=O)N1c1ccccc1` [AB_0000930, 3-chloro-1-phenyl-pyrrole-2,5-dione] the figure was 0.
Turning to `O=Cc1cccc(C(F)(F)F)c1Cl` [AB_0001030, 2-chloro-3-(trifluoromethyl)benzaldehyde], in the experiment on human Fab of κ-type, the “NMR signal, conc 2” value is given as 0 and the “NMR signal, conc 1” value was determined as 1.
